Laboratory results: patent publication US6417210B1 (MOR-Research Applications Ltd., priority 1998, dated 2002)

What was measured:
[1] = system: patients suffering from advanced Parkinson's disease with severe levodopa-induced dyskinesias
Protocol: The patients were given optimal anti-parkinsonian drug treatment during the three months prior to the clinical trial. Duration of study was six weeks. First two weeks served to accumulate baseline data. Patients filled up dyskinesias diaries in which they marked at every waking hour whether involuntary movements were present and their severity (mild/moderate and severe). […] The dose was then increased to 25 mg, b.i.d. for additional four days (once in the morning and once in the early afternoon). The dose as then further increased to two 50 mg tablets (total of 100 mg. daily) which the patients took for three additional weeks. They continued to fill up their dyskinesias diaries throughout the trial period.

[2] = system: baboons; details: induced by 3-nitropropionic acid, Palfi et al. 1997; cited from earlier work

## Nc1nc2ccc(OC(F)(F)F)cc2s1 [Riluzole, 2-amino-6-trifluoromethoxy benzothiazole]
[1]; riluzole up to 50 mg b.i.d.
  Adverse effects: no report of adverse-effects
  Tolerability: well-tolerated
[1]; when patients took riluzole
  Efficacy of levodopa and other anti-parkinsonian drugs and total daily time spent in "on" periods: no decrease
  Worsening of the parkinsonian signs and symptoms: no worsening
[2]
  Abnormal motor movement: reduces various abnormal motor movement
